Results taken from PubChem BioAssay (NCI).
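GI50 = concentration required for 50% inhibition of growth. TGI is the concentration that stops growth completely.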

Key:
Assay in all cases: NCI anticancer screen, dose series, 384-well format
786-0 renal = system: 786-0 renal
A498 renal = system: A498 renal
A549 NSCLC = system: A549 NSCLC
BT-549 breast = system: BT-549 breast
CAKI-1 renal = system: CAKI-1 renal
CCRF-CEM leukemia = system: CCRF-CEM leukemia
COLO 205 colon = system: COLO 205 colon
DU-145 prostate = system: DU-145 prostate
EKVX NSCLC = system: EKVX NSCLC
HCC-2998 colon = system: HCC-2998 colon
HCT-116 colon = system: HCT-116 colon
HCT-15 colon = system: HCT-15 colon
HL-60(TB) leukemia = system: HL-60(TB) leukemia
HOP-62 NSCLC = system: HOP-62 NSCLC
HOP-92 NSCLC = system: HOP-92 NSCLC
HS 578T breast = system: HS 578T breast
HT29 colon = system: HT29 colon
IGROV1 ovarian = system: IGROV1 ovarian
K-562 leukemia = system: K-562 leukemia
KM12 colon = system: KM12 colon
LOX IMVI melanoma = system: LOX IMVI melanoma
M14 melanoma = system: M14 melanoma
MALME-3M melanoma = system: MALME-3M melanoma
MCF7 breast = system: MCF7 breast
MDA-MB-231 breast = system: MDA-MB-231 breast
MDA-MB-435 melanoma = system: MDA-MB-435 melanoma
MDA-MB-468 breast = system: MDA-MB-468 breast
MOLT-4 leukemia = system: MOLT-4 leukemia
NCI-H226 lung = system: NCI-H226 lung
NCI-H23 lung = system: NCI-H23 lung
NCI-H322M lung = system: NCI-H322M lung
NCI-H460 NSCLC = system: NCI-H460 NSCLC
NCI-H522 lung = system: NCI-H522 lung
NCI/ADR-RES ovarian = system: NCI/ADR-RES ovarian
OVCAR-3 ovarian = system: OVCAR-3 ovarian
OVCAR-4 ovarian = system: OVCAR-4 ovarian
OVCAR-5 ovarian = system: OVCAR-5 ovarian
OVCAR-8 ovarian = system: OVCAR-8 ovarian
PC-3 prostate = system: PC-3 prostate
RPMI-8226 leukemia = system: RPMI-8226 leukemia
RXF 393 renal = system: RXF 393 renal
SF-268 CNS = system: SF-268 CNS
SF-295 CNS = system: SF-295 CNS
SF-539 CNS = system: SF-539 CNS
SK-MEL-2 melanoma = system: SK-MEL-2 melanoma
SK-MEL-28 melanoma = system: SK-MEL-28 melanoma
SK-MEL-5 melanoma = system: SK-MEL-5 melanoma
SK-OV-3 ovarian = system: SK-OV-3 ovarian
SNB-19 CNS = system: SNB-19 CNS
SNB-75 CNS = system: SNB-75 CNS
SW-620 colon = system: SW-620 colon
T-47D breast = system: T-47D breast
TK-10 renal = system: TK-10 renal
U251 glioblastoma = system: U251 glioblastoma
UO-31 renal = system: UO-31 renal

`COC[C@H]1Cn2cc(-c3nc(Nc4ccnn4C)ncc3C)nc2C(=O)N1Cc1ccc(F)c(F)c1` was tested, and the GI50 ([…]-0 renal) was 24.6 µM, the TGI (786-0 renal) was over 100 µM and the GI50 (A498 renal) was 1300 nM. It also gave a TGI (A498 renal) of over 100 µM, a GI50 (A549 NSCLC) of 373 nM and a TGI (A549 NSCLC) of over 100 µM. The GI50 (BT-549 breast) was 18.6 µM, the TGI (BT-549 breast) was over 100 µM and the GI50 (CAKI-1 renal) was 509 nM. For the same molecule, the TGI (CAKI-1 renal) was over 100 µM, the GI50 (CCRF-CEM leukemia) was 17.6 µM and the TGI (CCRF-CEM leukemia) was 37.9 µM. For the same molecule, the GI50 (COLO 205 colon) was under 10 nM, the TGI (COLO 205 colon) was 360 nM and the GI50 (DU-145 prostate) was 10.4 µM. The TGI (DU-145 prostate) was over 100 µM, the GI50 (EKVX NSCLC) was 11 µM and the TGI (EKVX NSCLC) was over 100 µM. The GI50 (HCC-2998 colon) was 31.6 nM, the TGI (HCC-2998 colon) was 219 nM and the GI50 (HCT-116 colon) was 57.7 nM. The TGI (HCT-116 colon) was 32.3 µM, the GI50 (HCT-15 colon) was 24.8 µM and the TGI (HCT-15 colon) was over 100 µM. The GI50 (HL-60(TB) leukemia) was 15.4 nM, the TGI (HL-60(TB) leukemia) was 1550 nM and the GI50 (HOP-62 NSCLC) was 2020 nM. For the same molecule, the TGI (HOP-62 NSCLC) was over 100 µM, the GI50 (HOP-92 NSCLC) was 389 nM and the TGI (HOP-92 NSCLC) was 11.6 µM. For the same molecule, the GI50 (HS 578T breast) was 15.8 µM, the TGI (HS 578T breast) was over 100 µM and the GI50 (HT29 colon) was 94.7 nM. It also gave a TGI (HT29 colon) of over 100 µM, a GI50 (IGROV1 ovarian) of 314 nM and a TGI (IGROV1 ovarian) of over 100 µM. The GI50 (K-562 leukemia) was 1030 nM, the TGI (K-562 leukemia) was over 100 µM and the GI50 (KM12 colon) was 255 nM. It also gave a TGI (KM12 colon) of over 100 µM, a GI50 (LOX IMVI melanoma) of 39.3 nM and a TGI (LOX IMVI melanoma) of 310 nM. The GI50 (M14 melanoma) was 10.6 nM, the TGI (M14 melanoma) was 181 nM and the GI50 (MALME-3M melanoma) was under 10 nM. It also gave a TGI (MALME-3M melanoma) of 23.7 nM, a GI50 (MCF7 breast) of 19.6 µM and a TGI (MCF7 breast) of over 100 µM. For the same molecule, the GI50 (MDA-MB-231 breast) was 266 nM, the TGI (MDA-MB-231 breast) was over 100 µM and the GI50 (MDA-MB-435 melanoma) was 35.5 nM. The TGI (MDA-MB-435 melanoma) was over 100 µM, the GI50 (MDA-MB-468 breast) was 14.2 µM and the TGI (MDA-MB-468 breast) was 52.2 µM. The GI50 (MOLT-4 leukemia) was 16.9 µM, the TGI (MOLT-4 leukemia) was 46.5 µM and the GI50 (NCI-H226 lung) was 612 nM. For the same molecule, the TGI (NCI-H226 lung) was over 100 µM, the GI50 (NCI-H23 lung) was 36.9 nM and the TGI (NCI-H23 lung) was 2110 nM. The GI50 (NCI-H322M lung) was 145 nM, the TGI (NCI-H322M lung) was over 100 µM and the GI50 (NCI-H460 NSCLC) was 2030 nM. It also gave a TGI (NCI-H460 NSCLC) of over 100 µM, a GI50 (NCI-H522 lung) of 1090 nM and a TGI (NCI-H522 lung) of over 100 µM. For the same molecule, the GI50 (NCI/ADR-RES ovarian) was 93.6 µM, the TGI (NCI/ADR-RES ovarian) was over 100 µM and the GI50 (OVCAR-3 ovarian) was 43.5 µM. For the same molecule, the TGI (OVCAR-3 ovarian) was over 100 µM, the GI50 (OVCAR-4 ovarian) was 61.9 µM and the TGI (OVCAR-4 ovarian) was over 100 µM. It also gave a GI50 (OVCAR-5 ovarian) of 217 nM, a TGI (OVCAR-5 ovarian) of over 100 µM and a GI50 (OVCAR-8 ovarian) of 71.6 µM. The TGI (OVCAR-8 ovarian) was over 100 µM, the GI50 (PC-3 prostate) was 38.4 µM and the TGI (PC-3 prostate) was over 100 µM. It also gave a GI50 (RPMI-8226 leukemia) of 771 nM, a TGI (RPMI-8226 leukemia) of 2600 nM and a GI50 (RXF 393 renal) of 23.6 µM. For the same molecule, the TGI (RXF 393 renal) was over 100 µM, the GI50 (SF-268 CNS) was 95.9 µM and the TGI (SF-268 CNS) was over 100 µM. It also gave a GI50 (SF-295 CNS) of over 100 µM, a TGI (SF-295 CNS) of over 100 µM and a GI50 (SF-539 CNS) of 18.4 µM. For the same molecule, the TGI (SF-539 CNS) was over 100 µM, the GI50 (SK-MEL-2 melanoma) was 36.6 nM and the TGI (SK-MEL-2 melanoma) was 196 nM. The GI50 (SK-MEL-28 melanoma) was under 10 nM, the TGI (SK-MEL-28 melanoma) was 108 nM and the GI50 (SK-MEL-5 melanoma) was 64 nM. For the same molecule, the TGI (SK-MEL-5 melanoma) was 35.7 µM, the GI50 (SK-OV-3 ovarian) was 18.2 µM and the TGI (SK-OV-3 ovarian) was over 100 µM. For the same molecule, the GI50 (SNB-19 CNS) was 53.2 µM, the TGI (SNB-19 CNS) was over 100 µM and the GI50 (SNB-75 CNS) was 24.3 µM. The TGI (SNB-75 CNS) was over 100 µM, the GI50 (SW-620 colon) was 87.5 nM and the TGI (SW-620 colon) was 58.6 µM. For the same molecule, the GI50 (T-47D breast) was 53.4 µM, the TGI (T-47D breast) was over 100 µM and the GI50 (TK-10 renal) was 790 nM. It also gave a TGI (TK-10 renal) of 76.7 µM, a GI50 (U251 glioblastoma) of 2250 nM and a TGI (U251 glioblastoma) of over 100 µM. For the same molecule, the GI50 (UO-31 renal) was 2730 nM and the TGI (UO-31 renal) was over 100 µM.
